Laboratory results: patent US9023847B2, “Azaheterocyclic compounds” (Merck Patent GmbH, priority 2009, dated 2015)

target: T1, P70S6K (T412E mutant, Millipore) (Homo sapiens, UniProt P23443, T412E); test: p70S6K enzyme assay; type: biochemical; conditions: Table 1; 3 nM P70S6K, 24 μM ATP, 90 min at 25° C.; read-out: p70S6K inhibition (IC50)
T1 construct: purchased Millipore
Procedure, shortened: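 T412E-mutant P70S6K (3 nM) with 24 μM ATP and 1 μM FITC-AHA-AKRRRLSSLRA-OH S6-derived peptide in 100 mM Hepes pH 7.5, 5 mM MgCl2, 1 mM DTT, 0.015% Brij; 90 min at 25° C, EDTA stop. Phosphorylated product and substrate peptide separated and quantified by microfluidic capillary electrophoresis (Caliper LabChip 3000).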

T1 sequence (P23443 whole entry T412E): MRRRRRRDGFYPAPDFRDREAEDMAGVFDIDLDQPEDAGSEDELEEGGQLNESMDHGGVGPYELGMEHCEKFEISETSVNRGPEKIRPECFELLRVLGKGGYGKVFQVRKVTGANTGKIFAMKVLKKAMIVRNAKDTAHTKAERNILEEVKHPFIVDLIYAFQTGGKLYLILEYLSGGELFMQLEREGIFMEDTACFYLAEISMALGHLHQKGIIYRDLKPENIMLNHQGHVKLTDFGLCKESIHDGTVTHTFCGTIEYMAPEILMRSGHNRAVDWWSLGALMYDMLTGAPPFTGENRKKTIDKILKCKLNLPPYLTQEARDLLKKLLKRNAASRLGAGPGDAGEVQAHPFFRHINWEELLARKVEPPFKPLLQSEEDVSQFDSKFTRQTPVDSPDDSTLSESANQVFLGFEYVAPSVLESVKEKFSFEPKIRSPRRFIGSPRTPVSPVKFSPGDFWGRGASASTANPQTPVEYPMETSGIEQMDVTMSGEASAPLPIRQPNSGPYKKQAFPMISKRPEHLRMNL

IC50 [nM]	Structure (SMILES)
< 100	O=C(NCCc1cccc(F)c1)c1sccc1Nc1ncnc2[nH]ccc12 [Example 142, 3-(7H-Pyrrolo[2,3-d]pyrimidin-4-ylamino)-thiophene-2-carboxylic acid [2-(3-fluoro-phenyl)-ethyl]-amide]
< 100	O=C(NCCc1ccccc1)c1sccc1Nc1ncnc2[nH]ccc12 [Example 143, 3-(7H-Pyrrolo[2,3-d]pyrimidin-4-ylamino)-thiophene-2-carboxylic acid phenethyl-amide]
< 100	O=C(NCCc1cccc(Cl)c1)c1sccc1Nc1ncnc2[nH]ccc12 [Example 144, 3-(7H-Pyrrolo[2,3-d]pyrimidin-4-ylamino)-thiophene-2-carboxylic acid [2-(3-chloro-phenyl)-ethyl]-amide]
< 100	O=C(NCCc1ccc(F)cc1)c1sccc1Nc1ncnc2[nH]ccc12 [Example 145, 3-(7H-Pyrrolo[2,3-d]pyrimidin-4-ylamino)-thiophene-2-carboxylic acid [2-(4-fluoro-phenyl)-ethyl]-amide]
< 100	O=C(NCCc1ccc(Br)cc1)c1sccc1Nc1ncnc2[nH]ccc12 [Example 146, 3-(7H-Pyrrolo[2,3-d]pyrimidin-4-ylamino)-thiophene-2-carboxylic acid [2-(4-bromo-phenyl)-ethyl]-amide]
< 100	Cc1ccccc1CCNC(=O)c1sccc1Nc1ncnc2[nH]ccc12 [Example 147, 3-(7H-Pyrrolo[2,3-d]pyrimidin-4-ylamino)-thiophene-2-carboxylic acid [2-o-tolyl-ethyl)-amide]
< 100	O=C(NCCNCc1ccccc1)c1sccc1Nc1ncnc2[nH]ccc12 [Example 148, 3-(7H-Pyrrolo[2,3-d]pyrimidin-4-ylamino)-thiophene-2-carboxylic acid [2-2-benzylamino-ethyl)-amide]
< 100	O=C(NCCc1ccc(F)cc1)c1sccc1Nc1ccnc2[nH]ccc12 [Example 150, 3-(1H-Pyrrolo[2,3-b]pyridin-4-ylamino)-thiophene-2-carboxylic acid [2-(4-fluoro-phenyl)-ethyl]-amide]
< 100	O=C(NC1CCCNC1)c1sccc1Nc1ncnc2[nH]ccc12 (centres unmarked) [Example 151, 3-(7H-Pyrrolo[2,3-d]pyrimidin-4-ylamino)-thiophene-2-carboxylic acid piperidin-3-ylamide]
< 100	Cc1cc(Nc2ncnc3[nH]ccc23)c(C(=O)NCc2cccc(Cl)c2)s1 [Example 152, 5-Methyl-3-(7H-pyrrolo[2,3-d]pyrimidin-4-ylamino)-thiophene-2-carboxylic acid 3-chloro-benzylamide]
100 to 1000	CNCCNC(=O)c1sccc1Nc1ncnc2[nH]ccc12 [Example 153, 3-(7H-Pyrrolo[2,3-d]pyrimidin-4-ylamino)-thiophene-2-carboxylic acid (2-methylamino-ethyl)-amide]
100 to 1000	CC(C)(C)OC(=O)N1CCCC(NC(=O)c2sccc2Nc2ncnc3[nH]ccc23)C1 (centres unmarked) [Example 154, 3-{[3-(7H-Pyrrolo[2,3-d]pyrimidin-4-ylamino)-thiophene-2-carbonyl]-amino}-piperidine-1-carboxylic acid tert-butyl ester]
100 to 1000	CC(C)NC(=O)c1ccccc1Nc1ccnc2[nH]ccc12 [Example 155, N-Isopropyl-2-(1H-pyrrolo[2,3-b]pyridin-4-ylamino)-benzamide]
1000 to 10000	CC(C)(C)OC(=O)N1CCC(NC(=O)c2sccc2Nc2ccnc3[nH]ccc23)C1 (centres unmarked) [Example 156, 3-{[3-(1H-Pyrrolo[2,3-b]pyridin-4-ylamino)-thiophene-2-carbonyl]-amino}-pyrrolidine-1-carboxylic acid tert-butyl ester]
1000 to 10000	CC(C)(C)OC(=O)N(CCNC(=O)c1occc1Nc1ncnc2[nH]ccc12)Cc1ccccc1 [Example 157, Benzyl-(2-{[3-(7H-pyrrolo[2,3-d]pyrimidin-4-ylamino)-furan-2-carbonyl]-amino}-ethyl)-carbamic acid tert-butyl ester]

same assay, conditions: class symbol; 3 nM P70S6K, 24 μM ATP; read-out: IC50 (p70S6K)

IC50 [nM]	Structure (SMILES)
100 to 1000	COc1ccccc1C(CN(C)C)NC(=O)c1sccc1Nc1ccnc2[nH]ccc12 (centres unmarked) [Example 158, 3-(1H-Pyrrolo[2,3-b]pyridin-4-ylamino)-thiophene-2-carboxylic acid [2-dimethylamino-1-(2-methoxy-phenyl)-ethyl]-amide]
< 100	CN(C)CC(NC(=O)c1sccc1Nc1ccnc2[nH]ccc12)c1cccc(Cl)c1 (centres unmarked) [Example 159, 3-(1H-Pyrrolo[2,3-b]pyridin-4-ylamino)-thiophene-2-carboxylic acid [1-(3-chloro-phenyl)-2-dimethylamino-ethyl]-amide]
< 100	COc1cccc(C(CN(C)C)NC(=O)c2sccc2Nc2ccnc3[nH]ccc23)c1 (centres unmarked) [Example 160, 3-(1H-Pyrrolo[2,3-b]pyridin-4-ylamino)-thiophene-2-carboxylic acid [2-dimethylamino-1-(3-methoxy-phenyl)-ethyl]-amide]
< 100	O=C(Nc1cccc(CNC(=O)c2sccc2Nc2ccnc3[nH]ccc23)c1)c1ccnc(N2CCCC2)c1 [Example 161, 2-Pyrrolidin-1-yl-N-[3-({[3-(1H-pyrrolo[2,3-b]pyridin-4-ylamino)-thiophene-2-carbonyl]-amino}-methyl)-phenyl]-isonicotinamide]
< 100	CN(C)c1cc(C(=O)Nc2cccc(CNC(=O)c3sccc3Nc3ccnc4[nH]ccc34)c2)ccn1 [Example 162, 2-Dimethylamino-N-[3-({[3-(1H-pyrrolo[2,3-b]pyridin-4-ylamino)-thiophene-2-carbonyl]-amino}-methyl)-phenyl]-isonicotinamide]
< 100	CN1CCN(c2cc(C(=O)Nc3cccc(CNC(=O)c4sccc4Nc4ccnc5[nH]ccc45)c3)ccn2)CC1 [Example 163, 2-(4-Methyl-piperazin-1-yl)-N-[3-({[3-(1H-pyrrolo[2,3-b]pyridin-4-ylamino)-thiophene-2-carbonyl]-amino}-methyl)-phenyl]-isonicotinamide]
< 100	O=C(Nc1cccc(CNC(=O)c2sccc2Nc2ccnc3[nH]ccc23)c1)c1ccnc(N2CCOCC2)c1 [Example 164, 2-Morpholin-4-yl-N-[3-({[3-(1H-pyrrolo[2,3-b]pyridin-4-ylamino)-thiophene-2-carbonyl]-amino}-methyl)-phenyl]-isonicotinamide]
< 100	CCNc1cc(C(=O)Nc2cccc(CNC(=O)c3sccc3Nc3ccnc4[nH]ccc34)c2)ccn1 [Example 165, 2-Ethylamino-N-[3-({[3-(1H-pyrrolo[2,3-b]pyridin-4-ylamino)-thiophene-2-carbonyl]-amino}-methyl)-phenyl]-isonicotinamide]
< 100	CN(C)CC(NC(=O)c1sccc1Nc1ccnc2[nH]ccc12)c1ccc(F)cc1 (centres unmarked) [Example 166, 3-(1H-Pyrrolo[2,3-b]pyridin-4-ylamino)-thiophene-2-carboxylic acid [2-dimethylamino-1-(4-fluoro-phenyl)-ethyl]-amide]
< 100	CNCC(NC(=O)c1sccc1Nc1ccnc2[nH]ccc12)c1cccc(F)c1 (centres unmarked) [Example 167, 3-(1H-Pyrrolo[2,3-b]pyridin-4-ylamino)-thiophene-2-carboxylic acid [1-(3-fluoro-phenyl)-2-methylamino-ethyl]-amide]
< 100	CNCC(NC(=O)c1sccc1Nc1ccnc2[nH]ccc12)c1cccc(Cl)c1 (centres unmarked) [Example 168, 3-(1H-Pyrrolo[2,3-b]pyridin-4-ylamino)-thiophene-2-carboxylic acid [1-(3-chloro-phenyl)-2-methylamino-ethyl]-amide]
< 100	CNCC(NC(=O)c1sccc1Nc1ccnc2[nH]ccc12)c1ccccc1 (centres unmarked) [Example 169, 3-(1H-Pyrrolo[2,3-b]pyridin-4-ylamino)-thiophene-2-carboxylic acid (2-methylamino-1-phenyl-ethyl)-amide]
< 100	NC[C@@H](NC(=O)c1sccc1Nc1ccnc2[nH]ccc12)c1ccccc1 [Example 170, 3-(1H-Pyrrolo[2,3-b]pyridin-4-ylamino)-thiophene-2-carboxylic acid ((S)-2-amino-1-phenyl-ethyl)-amide]
< 100	NC[C@@H](NC(=O)c1sccc1Nc1ccnc2[nH]ccc12)c1cccc(F)c1 [Example 171, 3-(1H-Pyrrolo[2,3-b]pyridin-4-ylamino)-thiophene-2-carboxylic acid [(S)-2-amino-1-(3-fluoro-phenyl)-ethyl]-amide]
< 100	O=C(NCc1ccccc1)c1sccc1Nc1ncnc2[nH]ccc12 [Example 172, 3-(7H-Pyrrolo[2,3-d]pyrimidin-4-ylamino)-thiophene-2-carboxylic acid benzylamide]
< 100	O=C(NCc1cccc(Cl)c1)c1sccc1Nc1ncnc2[nH]ccc12 [Example 173, 3-(7H-Pyrrolo[2,3-d]pyrimidin-4-ylamino)-thiophene-2-carboxylic acid 3-chloro-benzylamide]
< 100	O=C(NCCc1ccccc1)c1sccc1Nc1ncnc2[nH]ccc12 [Example 174, 3-(7H-Pyrrolo[2,3-d]pyrimidin-4-ylamino)-thiophene-2-carboxylic acid phenethylamide]
< 100	O=C(NCCc1cccc(F)c1)c1sccc1Nc1ncnc2[nH]ccc12 [Example 175, 3-(7H-Pyrrolo[2,3-d]pyrimidin-4-ylamino)-thiophene-2-carboxylic acid [2-(3-fluorophenyl)-ethyl]-amide]
< 100	O=C(NCc1cccc(Cl)c1)c1occc1Nc1ncnc2[nH]ccc12 [Example 176, 3-(7H-Pyrrolo[2,3-d]pyrimidin-4-ylamino)-furan-2-carboxylic acid 3-chloro-benzylamide]
1000 to 10000	CC(C)(C)OC(=O)N(CCNC(=O)c1occc1Nc1ncnc2[nH]ccc12)Cc1ccccc1 [Example 177]
